Reference: article PMC9693918, “May Sulfonamide Inhibitors of Carbonic Anhydrases from Mammaliicoccus sciuri Prevent Antimicrobial Resistance Due to Gene Transfer to Other Harmful Staphylococci?” (International Journal of Molecular Sciences, 2022)
Like-named read-outs stand apart in the source and are kept apart here.

Biological target: T1, MscCAγ (M. sciuri γ-CA) (Mammaliicoccus sciuri, UniProt A0AB37HNM1)
T1 construct: gene OWO77_11715
T1 sequence (A0AB37HNM1 1-169): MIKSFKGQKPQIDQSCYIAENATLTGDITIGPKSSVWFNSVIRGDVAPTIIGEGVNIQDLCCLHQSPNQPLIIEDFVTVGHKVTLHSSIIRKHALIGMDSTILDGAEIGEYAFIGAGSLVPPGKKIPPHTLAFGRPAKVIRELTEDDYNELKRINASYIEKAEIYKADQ
Experiment: stopped-flow CO2 hydration assay, phenol red
Type: biochemical
Excerpt: stopped-flow CO2 hydration assay, phenol red on MscCAγ (M. sciuri γ-CA)

Compound	Ki (read-out: KI (nM) ^a / MscCAγ) [nM]	Ki [nM]
CCN[C@H]1CN(CCCOC)S(=O)(=O)c2sc(S(N)(=O)=O)cc21 [BRZ]	100	
NS(=O)(=O)c1nnc(NS(=O)(=O)c2ccccc2)s1 [BZA]	444	
Cc1ccc(-c2cc(C(F)(F)F)nn2-c2ccc(S(N)(=O)=O)cc2)cc1 [CLX]	3020	
NS(=O)(=O)c1cc(Cl)c(Cl)c(S(N)(=O)=O)c1 [DCP]	8580	
NS(=O)(=O)c1cc2c(cc1Cl)NCNS2(=O)=O [HCT]	18300	
NS(=O)(=O)c1ccc(S(=O)(=O)Nc2cccc3c(Cl)c[nH]c23)cc1 [IND]	369	
CC(=O)N=c1sc(S(N)(=O)=O)nn1C [MZA]	94.5	
O=C1NS(=O)(=O)c2ccccc21 [SAC]	29700	
CCN1CCCC1CNC(=O)c1cc(S(N)(=O)=O)ccc1OC (stereo not shown) [SLP]	2200	
NS(=O)(=O)c1ccc(N2CCCCS2(=O)=O)cc1 [SLT]	405	
CC1(C)O[C@@H]2[C@@H](CO[C@@]3(COS(N)(=O)=O)OC(C)(C)O[C@@H]23)O1 [TPM]	578	
Cc1onc(-c2ccccc2)c1-c1ccc(S(N)(=O)=O)cc1 [VLX]	1540	
NS(=O)(=O)Cc1noc2ccccc12 [ZNS]	923	
NCCc1ccc(S(N)(=O)=O)cc1 [compound 6, 6]		176
NS(=O)(=O)c1ccc(CCNS(=O)(=O)c2ccc([N+](=O)[O-])cc2CO)cc1 [compound 21, 21]	83.4	
Nc1ccc(S(=O)(=O)Nc2ccc(S(N)(=O)=O)cc2)cc1 [compound 22, 22]	72.5	
